Reference: patent publication US12312370B2, “Immunoproteasome inhibitors” (Principia Biopharma Inc., priority 2017, dated 2025)

Columns and labels:
Format in all cases: biochemical
[1] = molecular target: constitutive proteasome β5c unit (Homo sapiens, UniProt P28074); experiment: Caliper-based proteasome enzymatic activity assay, β5c; conditions: human recombinant constitutive proteasome 0.3 nM, FAM-labeled peptide substrate 1 μM, rt 3 h; read-out: β5c subunit IC50
[2] = molecular target: immunoproteasome LPM2/β1i subunit (Homo sapiens, UniProt P28065); experiment: Caliper-based proteasome enzymatic activity assay, LMP2; conditions: human recombinant immunoproteasome 0.3 nM, FAM-labeled peptide substrate 1 μM, rt 2 h
[3] = molecular target: immunoproteasome LMP7/B5i subunit (Homo sapiens, UniProt P28062); experiment: Caliper-based proteasome enzymatic activity assay, LMP7; conditions: human recombinant immunoproteasome 0.3 nM, FAM-labeled peptide substrate 1 μM, rt 3 h; read-out: LMP7 subunit IC50

Structure (SMILES)	IC50 [1] [nM]	IC50 [2] [nM]	IC50 [3] [nM]
COC(=O)N1CCN(C(C)(C)C=C(C#N)C(=O)N2CCC[C@H](OC(=O)N[C@@H](Cc3ccccc3)B(O)O)C2)CC1 [Example 83, ((R)-1-(((((S)-1-(2-cyano-4-(4-(methoxycarbonyl)piperazin-1-yl)-4-methylpent-2-enoyl)piperidin-3-yl)oxy)carbonyl)amino)-2-phenylethyl)boronic acid]	944	> 5000	2.3
CC(C)(C)C=C(C#N)C(=O)N1CCC[C@H]1CNC(=O)N[C@@H](Cc1ccccc1)B(O)O [Example 39, ((R)-1-(3-(((S)-1-(2-cyano-4,4-dimethylpent-2-enoyl)pyrrolidin-2-yl)methyl)ureido)-2-phenylethyl)boronic acid]	> 5000	> 5000	78.8
C=CC(=O)N1CCC[C@@H]1CNC(=O)N[C@@H](Cc1coc2ccccc12)B(O)O [Example 41, ((R)-1-(3-(((R)-1-acryloylpyrrolidin-2-yl)methyl)ureido)-2-(benzofuran-3-yl)ethyl)boronic acid]	> 5000	> 5000	30
CC(C)(C=C(C#N)C(=O)N1CCC[C@@H]1CNC(=O)N[C@@H](Cc1coc2ccccc12)B(O)O)N1CCN(C2COC2)CC1 [Example 48, ((R)-2-(benzofuran-3-yl)-1-(3-(((R)-1-(2-cyano-4-methyl-4-(4-(oxetan-3-yl)piperazin-1-yl)pent-2-enoyl)pyrrolidin-2-yl)methyl)ureido)ethyl)boronic acid]	383	3740	8.7
C=CC(=O)N1CCC[C@H]1CNC(=O)N[C@@H](Cc1ccccc1)B(O)O [Example 37, ((R)-1-(3-(((S)-1-acryloylpyrrolidin-2-yl)methyl)ureido)-2-phenylethyl)boronic acid]	> 5000	> 5000	4530
CC(C)C=C(C#N)C(=O)N1CCCC[C@H]1CNC(=O)N[C@@H](Cc1ccccc1)B(O)O [Example 35, ((R)-1-(3-(((S)-1-(2-cyano-4-methylpent-2-enoyl)piperidin-2-yl)methyl)ureido)-2-phenylethyl)boronic acid]	> 5000	> 5000	611
CC(C)(C)C=C(C#N)C(=O)N1CCC[C@@H]1CNC(=O)N[C@@H](Cc1coc2ccccc12)B(O)O [Example 45, ((R)-2-(benzofuran-3-yl)-1-(3-(((R)-1-(2-cyano-4,4-dimethylpent-2-enoyl)pyrrolidin-2-yl)methyl)ureido)ethyl)boronic acid]	2070	> 5000	4.7
CC(C)C=C(C#N)C(=O)NCCCC[C@H](NC(=O)c1cnccn1)C(=O)N[C@@H](CC(C)C)B(O)O [Example 2, ((R)-1-((S)-6-(2-cyano-4-methylpent-2-enamido)-2-(pyrazine-2-carboxamido)hexanamido)-3-methylbutyl)boronic acid]	8.5	46.3	12.8
CC(C)C=C(C#N)C(=O)N1CCCC[C@@H]1CNC(=O)N[C@@H](Cc1ccccc1)B(O)O [Example 33, ((R)-1-(3-(((R)-1-(2-cyano-4-methylpent-2-enoyl)piperidin-2-yl)methyl)ureido)-2-phenylethyl)boronic acid]	> 5000	> 5000	> 5000
CC(C)C=C(C#N)C(=O)NCCCC[C@H](NC(=O)[C@@H](NC(=O)C(C)C)[C@@H](C)O)C(=O)N[C@@H](Cc1ccccc1)B(O)O [Example 10, ((R)-1-((S)-6-(2-cyano-4-methylpent-2-enamido)-2-((2S,3R)-3-hydroxy-2-isobutyramidobutanamido)hexanamido)-2-phenylethyl)boronic acid]	14.8	–	6.6
COC(=O)N1CCN(C(C)(C)C=C(C#N)C(=O)N2CCCC[C@@H](OC(=O)N[C@@H](Cc3ccccc3)B(O)O)C2)CC1 [Example 107, ((R)-1-(((((R)-1-(2-cyano-4-(4-(methoxycarbonyl)piperazin-1-yl)-4-methylpent-2-enoyl)azepan-3-yl)oxy)carbonyl)amino)-2-phenylethyl)boronic acid]	1070	–	1
C=CC(=O)N1C2CCC1(COC(=O)N[C@@H](Cc1coc3ccccc13)B(O)O)CC2 [Example 63, (R)-(1-((((7-acryloyl-7-azabicyclo[2.2.1]heptan-1-yl)methoxy)carbonyl)amino)-2-(benzofuran-3-yl)ethyl)boronic acid]	465	–	2
CC(C)C=C(C#N)C(=O)NCCCC[C@H](NC(=O)[C@H](C)NC(=O)C(C)C)C(=O)N[C@@H](CC(C)C)B(O)O [Example 1, ((R)-1-((S)-6-(2-cyano-4-methylpent-2-enamido)-2-((S)-2-isobutyramidopropanamido)hexanamido)-3-methylbutyl)boronic acid]	12.1	–	20.9
CC(C)(C=C(C#N)C(=O)N1CC[C@H](COC(=O)N[C@@H](Cc2ccccc2)B(O)O)C1)N1CCC(F)(F)C1 [Example 95, ((R)-1-(((((S)-1-(2-cyano-4-(3,3-difluoropyrrolidin-1-yl)-4-methylpent-2-enoyl)pyrrolidin-3-yl)methoxy)carbonyl)amino)-2-phenylethyl)boronic acid]	2640	–	6.9
C=CC(=O)N1CC(COC(=O)N[C@@H](Cc2ccccc2)B(O)O)C1 [Example 86, (R)-(1-((((1-acryloylazetidin-3-yl)methoxy)carbonyl)amino)-2-phenylethyl)boronic acid]	218	–	59.1
CC(C)(C=C(C#N)C(=O)N1CCO[C@@H](CC(=O)N[C@@H](Cc2ccccc2)B(O)O)C1)N1CCC(F)(F)C1 [Example 61, ((R)-1-(2-((S)-4-(2-cyano-4-(3,3-difluoropyrrolidin-1-yl)-4-methylpent-2-enoyl)morpholin-2-yl)acetamido)-2-phenylethyl)boronic acid]	186	–	11
CC#CC(=O)N(C)c1cccc(C[C@H](NC(=O)c2cc(Cl)ccc2Cl)C(=O)N[C@@H](Cc2ccccc2)B(O)O)c1 [Example 18, ((R)-1-((S)-2-(2,5-dichlorobenzamido)-3-(3-(N-methylbut-2-ynamido)phenyl)propanamido)-2-phenylethyl)boronic acid]	10	–	7.3
C=CC(=O)N1C[C@@H](F)[C@H](OC(=O)N[C@@H](Cc2ccc(F)cc2)B(O)O)C1 [Example 135, ((R)-1-(((((3R,4R)-1-acryloyl-4-fluoropyrrolidin-3-yl)oxy)carbonyl)amino)-2-(4-fluorophenyl)ethyl)boronic acid]	3320	–	18.2
COC(=O)N1CCN(C(C)(C)C=C(C#N)C(=O)N2CC[C@H](COC(=O)N[C@@H](Cc3ccccc3)B(O)O)C2)CC1 [Example 96, ((R)-1-(((((S)-1-(2-cyano-4-(4-(methoxycarbonyl)piperazin-1-yl)-4-methylpent-2-enoyl)pyrrolidin-3-yl)methoxy)carbonyl)amino)-2-phenylethyl)boronic acid]	1620	–	8.7
CC(C)(C=C(C#N)C(=O)N1CC[C@@H](OC(=O)N[C@@H](Cc2ccccc2)B(O)O)C1)N1CCC(F)(F)C1 [Example 90, ((R)-1-(((((R)-1-(2-cyano-4-(3,3-difluoropyrrolidin-1-yl)-4-methylpent-2-enoyl)pyrrolidin-3-yl)oxy)carbonyl)amino)-2-phenylethyl)boronic acid]	1590	–	3.2
